What was measured:
wheat = assay: Test B pre/postemergence wheat; assay type: in vivo, Triticum aestivum; settings: for Wheat plant response rating (0 to 10 scale): 0 is no effect
Method in brief: (§1)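 Test chemicals in a non-phytotoxic solvent mixture with surfactant were sprayed preemergence onto planted seeds and postemergence onto plants 2 to 18 cm tall (1- to 4-leaf stage). After twelve to sixteen days in a greenhouse, injury was visually rated against untreated controls from 0 (no effect) to 10 (complete control).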

corn = assay: Test B pre/postemergence corn; assay type: in vivo, Zea mays; settings: for Corn plant response rating (0 to 10 scale): 0 is no effect
Method in brief: as §1

wild oat = assay: Test B pre/postemergence wild oat; assay type: in vivo, Avena fatua; settings: for Wild oats plant response rating (0 to 10 scale): 0 is no effect
Method in brief: as §1

pigweed = assay: Test B pre/postemergence pigweed; assay type: in vivo, Amaranthus retroflexus; settings: for Redroot pigweed plant response rating (0 to 10 scale): 0 is no effect
Method in brief: as §1

soybean = assay: Test B pre/postemergence soybean; assay type: in vivo, Glycine max; settings: for Soybean plant response rating (0 to 10 scale): 0 is no effect
Method in brief: as §1

blackgrass = assay: Test B pre/postemergence blackgrass; assay type: in vivo, Alopecurus myosuroides; settings: for Blackgrass plant response rating (0 to 10 scale): 0 is no effect
Method in brief: as §1

giant foxtail = assay: Test B pre/postemergence giant foxtail; assay type: in vivo, Setaria faberii; settings: for Giant foxtail plant response rating (0 to 10 scale): 0 is no effect
Method in brief: as §1

surinam grass = assay: Test B pre/postemergence surinam grass; assay type: in vivo, Brachiaria decumbens; settings: for B. signalgrass plant response rating (0 to 10 scale): 0 is no effect
Method in brief: as §1

cocklebur = assay: Test B pre/postemergence cocklebur; assay type: in vivo, Xanthium strumarium; settings: for Cocklebur plant response rating (0 to 10 scale): 0 is no effect
Method in brief: as §1

bedstraw = assay: Test B pre/postemergence bedstraw; assay type: in vivo, Galium aparine; settings: for Bedstraw plant response rating (0 to 10 scale): 0 is no effect
Method in brief: as §1

velvetleaf = assay: Test B pre/postemergence velvetleaf; assay type: in vivo, Abutilon theophrasti; settings: for Velvetleaf plant response rating (0 to 10 scale): 0 is no effect
Method in brief: as §1

crabgrass = assay: Test B pre/postemergence crabgrass; assay type: in vivo, Digitaria sanguinalis; settings: for Crabgrass plant response rating (0 to 10 scale): 0 is no effect
Method in brief: as §1

sugar beet = assay: Test B pre/postemergence sugar beet; assay type: in vivo, Beta vulgaris; settings: for Sugarbeets plant response rating (0 to 10 scale): 0 is no effect
Method in brief: as §1

purple nutsedge = assay: Test B pre/postemergence purple nutsedge; assay type: in vivo, Cyperus rotundus; settings: for Nutsedge plant response rating (0 to 10 scale): 0 is no effect
Method in brief: as §1

[1] = Postemergence, Rate 125 g/ha, scale of 0 to 10 where 0 is no effect and 10 is complete control
[2] = Preemergence, Rate 62 g/ha, scale 0 to 10 (0 no effect, 10 complete control)
[3] = Preemergence, Rate 125 g/ha, 10 is complete control
[4] = Preemergence, Rate 250 g/ha, scale 0 to 10, 0 is no effect, 10 is complete control
[5] = Preemergence, Rate 500 g/ha, scale 0 to 10 (0 no effect, 10 complete control)
[6] = Rate 62 g/ha, Postemergence, scale of 0 to 10 where 0 is no effect and 10 is complete control
[7] = Rate 250 g/ha, Postemergence, scale 0 to 10, 0 is no effect, 10 is complete control
[8] = Rate 500 g/ha, Postemergence, scale 0 to 10
[9] = Rate 500 g/ha, Postemergence, scale 0 to 10, 0 no effect, 10 complete control
[10] = Preemergence, Rate 62 g/ha, scale of 0 to 10 where 0 is no effect and 10 is complete control

Cc1ccc(N(C(=O)n2oc(=O)n(C(C)C)c2=O)C(C)C)cc1 [Compound 132]
Wheat plant response rating (wheat; [1]): 2
Wheat plant response rating (wheat; [2]): 0
Wheat plant response rating (0 to 10 scale) (wheat; [3]): 0
Wheat plant response rating (wheat; [4]): 2
Wheat plant response rating (wheat; [5]): 4
Wheat plant response rating (wheat; [6]): 0
Plant response rating, Wheat (wheat; [7]): 2
Wheat plant response rating (wheat; [8]): 6
Corn plant response rating (corn; [1]): 0
Corn plant response rating (corn; [2]): 0
Corn plant response rating (0 to 10 scale) (corn; [3]): 0
Corn plant response rating (corn; [4]): 7
Corn plant response rating (corn; [5]): 8
Corn plant response rating (corn; [6]): 0
Plant response rating, Corn (corn; [7]): 4
Corn plant response rating (corn; [8]): 6
Wild oats plant response rating (wild oat; [1]): 2
Wild oats plant response rating (wild oat; [2]): 3
Wild oats plant response rating (0 to 10 scale) (wild oat; [3]): 5
Wild oats plant response rating (wild oat; [4]): 8
Wild oats plant response rating (wild oat; [5]): 9
Wild oats plant response rating (wild oat; [6]): 0
Plant response rating, Wild oats (wild oat; [7]): 2
Wild oats plant response rating (wild oat; [8]): 3
Redroot pigweed plant response rating (pigweed; [1]): 0
Redroot pigweed plant response rating (pigweed; [2]): 2
Redroot pigweed plant response rating (0 to 10 scale) (pigweed; [3]): 6
Redroot pigweed plant response rating (pigweed; [4]): 7
Redroot pigweed plant response rating (pigweed; [5]): 7
Redroot pigweed plant response rating (pigweed; [6]): 0
Plant response rating, Redroot pigweed (pigweed; [7]): 0
Redroot pigweed plant response rating (pigweed; [8]): 2
Soybean plant response rating (soybean; [1]): 3
Soybean plant response rating (soybean; [2]): 0
Soybean plant response rating (0 to 10 scale) (soybean; [3]): 0
Soybean plant response rating (soybean; [4]): 2
Soybean plant response rating (soybean; [5]): 4
Soybean plant response rating (soybean; [6]): 3
Plant response rating, Soybean (soybean; [7]): 4
Soybean plant response rating (soybean; [8]): 6
Blackgrass plant response rating (blackgrass; [1]): 2
Blackgrass plant response rating (blackgrass; [2]): 3
Blackgrass plant response rating (0 to 10 scale) (blackgrass; [3]): 6
Blackgrass plant response rating (blackgrass; [4]): 9
Blackgrass plant response rating (blackgrass; [5]): 10
Blackgrass plant response rating (blackgrass; [6]): 0
Plant response rating, Blackgrass (blackgrass; [7]): 8
Blackgrass plant response rating (blackgrass; [8]): 9
Giant foxtail plant response rating (giant foxtail; [1]): 9
Giant foxtail plant response rating (giant foxtail; [2]): 8
Giant foxtail plant response rating (0 to 10 scale) (giant foxtail; [3]): 8
Giant foxtail plant response rating (giant foxtail; [4]): 9
Giant foxtail plant response rating (giant foxtail; [5]): 10
Giant foxtail plant response rating (giant foxtail; [6]): 8
Plant response rating, Giant foxtail (giant foxtail; [7]): 9
Giant foxtail plant response rating (giant foxtail; [8]): 9
B. signalgrass plant response rating (surinam grass; [1]): 3
B. signalgrass plant response rating (surinam grass; [2]): 0
B. signalgrass plant response rating (0 to 10 scale) (surinam grass; [3]): 3
B. signalgrass plant response rating (surinam grass; [4]): 7
B. signalgrass plant response rating (surinam grass; [5]): 9
B. signalgrass plant response rating (surinam grass; [6]): 0
Plant response rating, B. signalgrass (surinam grass; [7]): 4
B. signalgrass plant response rating (surinam grass; Rate 500 g/ha, Postemergence, scale of 0 to 10 where 0 is no effect and 10 is complete control): 7
Cocklebur plant response rating (cocklebur; [1]): 0
Cocklebur plant response rating (cocklebur; [2]): 0
Cocklebur plant response rating (0 to 10 scale) (cocklebur; [3]): 0
Cocklebur plant response rating (cocklebur; [5]): 0
Cocklebur plant response rating (cocklebur; [6]): 0
Plant response rating, Cocklebur (cocklebur; [7]): 0
Cocklebur plant response rating (cocklebur; [8]): 0
Bedstraw plant response rating (bedstraw; [1]): 0
Bedstraw plant response rating (bedstraw; [2]): 0
Bedstraw plant response rating (0 to 10 scale) (bedstraw; [3]): 0
Bedstraw plant response rating (bedstraw; [4]): 9
Bedstraw plant response rating (bedstraw; [5]): 10
Bedstraw plant response rating (bedstraw; [6]): 0
Plant response rating, Bedstraw (bedstraw; [7]): 2
Bedstraw plant response rating (bedstraw; [9]): 7
Velvetleaf plant response rating (velvetleaf; [1]): 2
Velvetleaf plant response rating (velvetleaf; [2]): 3
Velvetleaf plant response rating (0 to 10 scale) (velvetleaf; [3]): 4
Velvetleaf plant response rating (velvetleaf; [4]): 6
Velvetleaf plant response rating (velvetleaf; [5]): 10
Velvetleaf plant response rating (velvetleaf; [6]): 2
Plant response rating, Velvetleaf (velvetleaf; [7]): 3
Velvetleaf plant response rating (velvetleaf; [8]): 3
Crabgrass plant response rating (crabgrass; [1]): 7
Crabgrass plant response rating (crabgrass; [2]): 7
Crabgrass plant response rating (0 to 10 scale) (crabgrass; [3]): 7
Crabgrass plant response rating (crabgrass; [4]): 9
Crabgrass plant response rating (crabgrass; [5]): 9
Crabgrass plant response rating (crabgrass; [6]): 5
Plant response rating, Crabgrass (crabgrass; [7]): 8
Crabgrass plant response rating (crabgrass; [8]): 9
Sugarbeets plant response rating (sugar beet; [1]): 0
Sugarbeets plant response rating (sugar beet; [2]): 2
Sugarbeets plant response rating (0 to 10 scale) (sugar beet; [3]): 5
Sugarbeets plant response rating (sugar beet; [4]): 6
Sugarbeets plant response rating (sugar beet; [5]): 8
Sugarbeets plant response rating (sugar beet; [6]): 0
Plant response rating, Sugarbeets (sugar beet; [7]): 0
Sugarbeets plant response rating (sugar beet; [8]): 2
Nutsedge plant response rating (purple nutsedge; [1]): 2
Nutsedge plant response rating (purple nutsedge; [2]): 0
Nutsedge plant response rating (0 to 10 scale) (purple nutsedge; [3]): 0
Nutsedge plant response rating (purple nutsedge; [4]): 0
Nutsedge plant response rating (purple nutsedge; [5]): 9
Nutsedge plant response rating (purple nutsedge; [6]): 0
Plant response rating, Nutsedge (purple nutsedge; [7]): 3
Nutsedge plant response rating (purple nutsedge; [8]): 4

CC(C)N(C(=O)n1oc(=O)n([C@@H](C)c2ccccc2)c1=O)c1ccccc1 [Compound 173]
Wheat plant response rating (wheat; [10]): 0
Wheat plant response rating (0 to 10 scale) (wheat; [3]): 0
Wheat plant response rating (wheat; [4]): 0
Wheat plant response rating (wheat; [5]): 0
Plant response rating, Wheat (wheat; [7]): 0
Wheat plant response rating (wheat; [8]): 0
Corn plant response rating (corn; [1]): 0
Corn plant response rating (corn; [10]): 0
Corn plant response rating (0 to 10 scale) (corn; [3]): 0
Corn plant response rating (corn; [4]): 0
Corn plant response rating (corn; [5]): 0
Corn plant response rating (corn; [6]): 0
Plant response rating, Corn (corn; [7]): 0
Corn plant response rating (corn; [8]): 0
Wild oats plant response rating (wild oat; [10]): 0
Wild oats plant response rating (0 to 10 scale) (wild oat; [3]): 0
Wild oats plant response rating (wild oat; [4]): 2
Wild oats plant response rating (wild oat; [5]): 3
Plant response rating, Wild oats (wild oat; [7]): 0
Wild oats plant response rating (wild oat; [8]): 0
Redroot pigweed plant response rating (pigweed; [1]): 0
Redroot pigweed plant response rating (pigweed; [10]): 0
Redroot pigweed plant response rating (0 to 10 scale) (pigweed; [3]): 0
Redroot pigweed plant response rating (pigweed; [4]): 0
Redroot pigweed plant response rating (pigweed; [5]): 5
Redroot pigweed plant response rating (pigweed; [6]): 0
Plant response rating, Redroot pigweed (pigweed; [7]): 0
Redroot pigweed plant response rating (pigweed; [8]): 0
Soybean plant response rating (soybean; [1]): 2
Soybean plant response rating (soybean; [10]): 0
Soybean plant response rating (0 to 10 scale) (soybean; [3]): 0
Soybean plant response rating (soybean; [4]): 0
Soybean plant response rating (soybean; [5]): 3
Soybean plant response rating (soybean; [6]): 2
Plant response rating, Soybean (soybean; [7]): 2
Soybean plant response rating (soybean; [8]): 4
Blackgrass plant response rating (blackgrass; [1]): 0
Blackgrass plant response rating (blackgrass; [10]): 0
Blackgrass plant response rating (0 to 10 scale) (blackgrass; [3]): 0
Blackgrass plant response rating (blackgrass; [4]): 0
Blackgrass plant response rating (blackgrass; [5]): 6
Blackgrass plant response rating (blackgrass; [6]): 0
Plant response rating, Blackgrass (blackgrass; [7]): 2
Blackgrass plant response rating (blackgrass; [8]): 2
Giant foxtail plant response rating (giant foxtail; [1]): 0
Giant foxtail plant response rating (giant foxtail; [10]): 6
Giant foxtail plant response rating (0 to 10 scale) (giant foxtail; [3]): 9
Giant foxtail plant response rating (giant foxtail; [4]): 9
Giant foxtail plant response rating (giant foxtail; [5]): 10
Giant foxtail plant response rating (giant foxtail; [6]): 0
Plant response rating, Giant foxtail (giant foxtail; [7]): 0
Giant foxtail plant response rating (giant foxtail; [8]): 0
B. signalgrass plant response rating (surinam grass; [1]): 0
B. signalgrass plant response rating (surinam grass; [10]): 0
B. signalgrass plant response rating (0 to 10 scale) (surinam grass; [3]): 0
B. signalgrass plant response rating (surinam grass; [4]): 3
B. signalgrass plant response rating (surinam grass; [5]): 4
B. signalgrass plant response rating (surinam grass; [6]): 0
Plant response rating, B. signalgrass (surinam grass; [7]): 0
B. signalgrass plant response rating (surinam grass; [9]): 0
Cocklebur plant response rating (cocklebur; [1]): 0
Cocklebur plant response rating (cocklebur; [10]): 0
Cocklebur plant response rating (0 to 10 scale) (cocklebur; [3]): 0
Cocklebur plant response rating (cocklebur; [4]): 0
Cocklebur plant response rating (cocklebur; [5]): 0
Cocklebur plant response rating (cocklebur; [6]): 0
Plant response rating, Cocklebur (cocklebur; [7]): 1
Cocklebur plant response rating (cocklebur; [8]): 2
Bedstraw plant response rating (bedstraw; [1]): 0
Bedstraw plant response rating (bedstraw; [10]): 0
Bedstraw plant response rating (0 to 10 scale) (bedstraw; [3]): 0
Bedstraw plant response rating (bedstraw; [4]): 0
Bedstraw plant response rating (bedstraw; [5]): 0
Bedstraw plant response rating (bedstraw; [6]): 0
Plant response rating, Bedstraw (bedstraw; [7]): 4
Velvetleaf plant response rating (velvetleaf; [10]): 0
Velvetleaf plant response rating (0 to 10 scale) (velvetleaf; [3]): 0
Velvetleaf plant response rating (velvetleaf; [4]): 0
Velvetleaf plant response rating (velvetleaf; [5]): 0
Plant response rating, Velvetleaf (velvetleaf; [7]): 0
Velvetleaf plant response rating (velvetleaf; [8]): 0
Crabgrass plant response rating (crabgrass; [1]): 4
Crabgrass plant response rating (crabgrass; [10]): 2
Crabgrass plant response rating (0 to 10 scale) (crabgrass; [3]): 6
Crabgrass plant response rating (crabgrass; [4]): 8
Crabgrass plant response rating (crabgrass; [5]): 9
Crabgrass plant response rating (crabgrass; [6]): 0
Plant response rating, Crabgrass (crabgrass; [7]): 5
Crabgrass plant response rating (crabgrass; [8]): 8
Sugarbeets plant response rating (sugar beet; [1]): 0
Sugarbeets plant response rating (sugar beet; [10]): 0
Sugarbeets plant response rating (0 to 10 scale) (sugar beet; [3]): 2
Sugarbeets plant response rating (sugar beet; [4]): 3
Sugarbeets plant response rating (sugar beet; [5]): 6
Sugarbeets plant response rating (sugar beet; [6]): 0
Plant response rating, Sugarbeets (sugar beet; [7]): 0
Sugarbeets plant response rating (sugar beet; [8]): 5
Nutsedge plant response rating (purple nutsedge; [1]): 0
Nutsedge plant response rating (purple nutsedge; [10]): 0
Nutsedge plant response rating (0 to 10 scale) (purple nutsedge; [3]): 0
Nutsedge plant response rating (purple nutsedge; [4]): 0
Nutsedge plant response rating (purple nutsedge; [5]): 0
Nutsedge plant response rating (purple nutsedge; [6]): 0
Plant response rating, Nutsedge (purple nutsedge; [7]): 0
Nutsedge plant response rating (purple nutsedge; [8]): 0

From US6737383B1, “Herbicidal oxadiazolidines” (priority 1999, dated 2004)
